Test results published in patent US20220202801A1, “USE OF COMPOUND IN PREPARATION OF DRUG FOR TREATING ATHEROSCLEROSIS” (GenEros Biopharma Ltd., priority 2019, published 2022).
“Also recorded” adds a separate entry of the source.

Legend:
CD68 = experiment: Immunohistochemistry of aortic wall, CD68; type: in vivo, mice; settings: for aorta (CD68) signal expression in blood vessels: IHC-P×400, single animal micrograph; for CD68 average optical density: aortic wall
Source text: (§1) Methods: SPF grade C57BL/6 ApoE −/−model mice were provided by Guangdong Medical Experimental Animal Center, laboratory animal production license No. SOCK (Guangdong) 2013-0002. Laboratory animal quality certificate number: 44007200048196). Mice were half male and half female, aged 8 to 12 weeks, and 72 animals in total. After four weeks of housing in a SPF-level animal facility, animals with less body weights were disposed. A total of 64 animals were randomly divided into 8 groups, 8 in each group, fed with 10% high-fat food, and received with different treatments. Animals were observed and administered with the medicines by gavage once daily. The body weights were measured once a week and continued for 58 days. […] The test sample was dissolved in dimethyl sulfoxide solution and prepared with 30% PEG300.
(§2) After blood collection, the animals were sacrificed, and the aortic arch together with the heart and thoracic aorta were fixed with neutral formaldehyde and subject to pathological examination. The abdominal aorta was collected and quick-frozen in liquid nitrogen, and stored at −80° C.
(§3) c) Immunohistochemistry: The thoracic aorta was sliced and detected by immunohistochemistry for the expression of CD68, intercellular adhesion molecule-1 (ICAM-1), and vascular cell adhesion Molecule-1 (VCAM-1).

ApoE knockout mice [1] = experiment: Blood lipid metabolism TG, TCHO, HDL-c, LDL-c (Example 2); type: in vivo
Source text: Methods: A total of 130 SPF grade C57BL/6 ApoE −/− model male mice aged 8 weeks were purchased from Charles River Laboratories (Beijing, China) (animal license number: SCXK (Beijing) 2016-0001, animal qualification certificate No.: 11400700331337). After one week of acclimatization in a SPF-grade animal facility, the animals with less weights were discarded and the rest was randomly divided into 11 groups, with 8 animals in each group. Except for the healthy control group, the rest were fed with 10% high-fat food (the first day of the high-fat diet was recorded as D1). Starting from the 8th week of the high-fat diet, each group of animals was orally given solvents or corresponding drugs, and the volume of administration was 10 ml/kg, once a day for 8 weeks. Animals were observed and administered by gavage once a day and the body weight were measured once a week for 56 days. […] The store solution of the test samples was dissolved in dimethyl sulfoxide solution and prepared with 30% PEG300.
At the end of the experiment, the animals were euthanized by inhalation of carbon dioxide. Blood was taken from the heart, and centrifuged at 3000 r/min at a low temperature centrifuge for 10 min to separate the serum. The levels of total cholesterol TC, triglyceride TG, high-density lipoprotein HDL-C, and low-density lipoprotein LDL-C were measured, and the remaining serum was stored in a refrigerator at −80° C.
Before the start of the experiment, animal blood samples were analyzed for blood lipid metabolism, including conventional triglyceride (TG), total cholesterol (TCHO), high-density lipoprotein (HDL-c) and low-density lipoprotein (LDL-c). After high-fat or ordinary food feeding for 8 weeks, the blood lipid levels were measured again. After the drug treatment was started, blood lipid measurements were performed every four weeks until the end of the experiment.

ApoE knockout mice [2] = experiment: Four blood lipids in serum of ApoE knockout mice (Example 1); type: in vivo; settings: for HDL-C / LDL-C / TC / TG: serum
Source text: as §1
At the end of the experiment, animals were anesthetized with pentobarbital sodium. Blood was collected from the orbital venous plexus, and centrifuged at 3000 r/min at a low temperature for 10 min to separate the serum. The levels of total cholesterol TC, triglyceride TG, high-density lipoprotein HDL-C, and low-density lipoprotein LDL-C were measured, and the remaining serum was stored in a refrigerator at −80° C.
Statistical analysis: Data were expressed as the mean plus or minus the standard deviation (x± s), and analyzed by SPSS21.0 statistical software. […] The level of test is α=0.05.

VCAM-1 = experiment: Immunohistochemistry of aortic wall, VCAM-1; type: in vivo, mice; settings: for aorta (VCAM-1) signal expression in blood vessels: IHC-P×400, single animal micrograph; for VCAM-1 average optical density: aortic wall
Source text: as §1, §2, §3

[3] = tested on: atherosclerotic lesions in ApoE knockout mice; experiment: Aortic HE and oil red O staining, atherosclerotic lesion scores (Example 1); type: in vivo; settings: for Mild n (number of animal cases with mild lesions) / Moderate n (number of animal cases with moderate lesions) / No lesion n (number of animal cases) / Severe n (number of animal cases with severe lesions): of 8 animals; for animals that had atherosclerosis (histological observation): of 8 aortas examined
Source text: as §1, §2
a) HE staining: aortic arch was sliced and HE stained. The plaques were observed under optical microscope.
b) Oil red O staining: aortic arch was sliced and oil red O stained. The plaques were observed under optical microscope.

[4] = half male and female, 1 mg/kg body weight
[5] = half male and female, 2 mg/kg body weight
[6] = half male and female, 5 mg/kg body weight
[7] = ♂, 5 mg/kg gavage QD, 58 days, 5 mg/kg
[8] = ♂, 5 mg/kg gavage QD, 58 days, listed as sample B, 5 mg/kg

O=C(N/N=C/c1coc2ccccc2c1=O)c1cccnc1 [Sample B]
aorta (CD68) signal expression in blood vessels (CD68; 1 mg/kg): low to medium
aorta (CD68) signal expression in blood vessels (CD68; 2 mg/kg): low to medium
aorta (CD68) signal expression in blood vessels (CD68; 5 mg/kg): low to medium
CD68 average optical density (CD68; 1 mg/kg gavage QD): 1.85 ± 1.51 ×10^−2
CD68 average optical density (CD68; 2 mg/kg gavage QD): 2.22 ± 0.99 ×10^−2
CD68 average optical density (CD68; 5 mg/kg gavage QD): 2.83 ± 1.40 ×10^−2
effect on high-density lipoprotein (HDL-c) level compared with the vehicle group (ApoE knockout mice [1]): no obvious effect
effect on low-density lipoprotein (LDL-c) level compared with the vehicle group (ApoE knockout mice [1]): significantly reduce
effect on total cholesterol (TCHO) level compared with the vehicle group (ApoE knockout mice [1]): significantly reduce
effect on triglyceride (TG) level compared with the vehicle group (ApoE knockout mice [1]): significantly reduce
regulation on blood lipid levels (overall) (ApoE knockout mice [2]; Example 1, overall): have the effect of improving blood lipids
HDL-C (ApoE knockout mice [2]; [4]): 1.75 ± 0.69 mmol/L
LDL-C (ApoE knockout mice [2]; [4]): 6.19 ± 2.64 mmol/L
TC (ApoE knockout mice [2]; [4]): 19.56 ± 5.66 mmol/L
TG (ApoE knockout mice [2]; [4]): 0.91 ± 0.69 mmol/L
HDL-C (ApoE knockout mice [2]; [5]): 1.68 ± 0.39 mmol/L
LDL-C (ApoE knockout mice [2]; [5]): 5.71 ± 1.80 mmol/L
TC (ApoE knockout mice [2]; [5]): 19.01 ± 4.64 mmol/L
TG (ApoE knockout mice [2]; [5]): 0.81 ± 0.30 mmol/L
HDL-C (ApoE knockout mice [2]; [6]): 1.71 ± 0.45 mmol/L
LDL-C (ApoE knockout mice [2]; [6]): 5.96 ± 2.17 mmol/L
TC (ApoE knockout mice [2]; [6]): 19.76 ± 5.49 mmol/L
TG (ApoE knockout mice [2]; half male and female, 5 mg/kg body weight, 5 mg/kg): 0.74 ± 0.35 mmol/L
TG (ApoE knockout mice [2]; half male and female, 5 mg/kg body weight, listed as sample B, 5 mg/kg): lower; also recorded: decreased
LDL-C (ApoE knockout mice [2]; ♀, 1 mg/kg gavage QD, 58 days): 4.32 ± 0.59 mmol/L
TC (ApoE knockout mice [2]; ♀, 1 mg/kg gavage QD, 58 days): 15.50 ± 2.01 mmol/L
TG (ApoE knockout mice [2]; ♀, 1 mg/kg gavage QD, 58 days): 0.57 ± 0.08 mmol/L
HDL-C (ApoE knockout mice [2]; ♀, 1 mg/kg gavage QD, 58 days, 1 mg/kg): 1.32 ± 0.18 mmol/L
HDL-C (ApoE knockout mice [2]; ♀, 1 mg/kg gavage QD, 58 days, listed as sample B, 1 mg/kg): lower
LDL-C (ApoE knockout mice [2]; ♀, 2 mg/kg gavage QD, 58 days): 4.40 ± 0.96 mmol/L
TC (ApoE knockout mice [2]; ♀, 2 mg/kg gavage QD, 58 days): 15.49 ± 2.98 mmol/L
TG (ApoE knockout mice [2]; ♀, 2 mg/kg gavage QD, 58 days): 0.58 ± 0.10 mmol/L
HDL-C (ApoE knockout mice [2]; ♀, 2 mg/kg gavage QD, 58 days, 2 mg/kg): 1.36 ± 0.16 mmol/L
HDL-C (ApoE knockout mice [2]; ♀, 2 mg/kg gavage QD, 58 days, listed as sample B, 2 mg/kg): lower
LDL-C (ApoE knockout mice [2]; ♀, 5 mg/kg gavage QD, 58 days): 4.61 ± 0.56 mmol/L
TC (ApoE knockout mice [2]; ♀, 5 mg/kg gavage QD, 58 days): 16.21 ± 1.98 mmol/L
TG (ApoE knockout mice [2]; ♀, 5 mg/kg gavage QD, 58 days): 0.65 ± 0.24 mmol/L
HDL-C (ApoE knockout mice [2]; ♀, 5 mg/kg gavage QD, 58 days, 5 mg/kg): 1.38 ± 0.08 mmol/L
HDL-C (ApoE knockout mice [2]; ♀, 5 mg/kg gavage QD, 58 days, listed as sample B, 5 mg/kg): lower
HDL-C (ApoE knockout mice [2]; ♂, 1 mg/kg gavage QD, 58 days): 2.18 ± 0.75 mmol/L
LDL-C (ApoE knockout mice [2]; ♂, 1 mg/kg gavage QD, 58 days): 8.07 ± 2.56 mmol/L
TC (ApoE knockout mice [2]; ♂, 1 mg/kg gavage QD, 58 days): 23.63 ± 5.16 mmol/L
TG (ApoE knockout mice [2]; ♂, 1 mg/kg gavage QD, 58 days): 1.26 ± 0.89 mmol/L
LDL-C (ApoE knockout mice [2]; ♂, 2 mg/kg gavage QD, 58 days): 7.03 ± 1.41 mmol/L
TC (ApoE knockout mice [2]; ♂, 2 mg/kg gavage QD, 58 days): 22.54 ± 2.88 mmol/L
TG (ApoE knockout mice [2]; ♂, 2 mg/kg gavage QD, 58 days): 1.05 ± 0.25 mmol/L
HDL-C (ApoE knockout mice [2]; ♂, 2 mg/kg gavage QD, 58 days, 2 mg/kg): 2.00 ± 0.23 mmol/L
HDL-C (ApoE knockout mice [2]; ♂, 2 mg/kg gavage QD, 58 days, listed as sample B, 2 mg/kg): lower
LDL-C (ApoE knockout mice [2]; ♂, 5 mg/kg gavage QD, 58 days): 7.31 ± 2.41 mmol/L
TC (ApoE knockout mice [2]; ♂, 5 mg/kg gavage QD, 58 days): 23.32 ± 5.72 mmol/L
HDL-C (ApoE knockout mice [2]; [7]): 2.04 ± 0.42 mmol/L
TG (ApoE knockout mice [2]; [7]): 0.83 ± 0.46 mmol/L
HDL-C (ApoE knockout mice [2]; [8]): lower
TG (ApoE knockout mice [2]; [8]): lower
aorta (VCAM-1) signal expression in blood vessels (VCAM-1; 1 mg/kg): low to medium
aorta (VCAM-1) signal expression in blood vessels (VCAM-1; 2 mg/kg): low to medium
aorta (VCAM-1) signal expression in blood vessels (VCAM-1; 5 mg/kg): low to medium
VCAM-1 average optical density (VCAM-1; 1 mg/kg gavage QD): 1.24 ± 0.99 ×10^−2
VCAM-1 average optical density (VCAM-1; 2 mg/kg gavage QD, 2 mg/kg): 1.54 ± 1.11 ×10^−2
VCAM-1 average optical density (VCAM-1; 2 mg/kg gavage QD, listed as Nib2, 2 mg/kg): reduced expression
VCAM-1 average optical density (VCAM-1; 5 mg/kg gavage QD): 1.69 ± 0.85 ×10^−2
formation of arterial plaque (pathological results) ([3]; medium doses, preventive treatment): could delay the formation of arterial plaque in ApoE knockout mice to a certain extent
Mild n (number of animal cases with mild lesions) ([3]; 1 mg/kg body weight): 2
Moderate n (number of animal cases with moderate lesions) ([3]; 1 mg/kg body weight): 2
No lesion n (number of animal cases) ([3]; 1 mg/kg body weight): 1
Severe n (number of animal cases with severe lesions) ([3]; 1 mg/kg body weight): 3
Mild n (number of animal cases with mild lesions) ([3]; 2 mg/kg body weight): 3
Moderate n (number of animal cases with moderate lesions) ([3]; 2 mg/kg body weight): 1
No lesion n (number of animal cases) ([3]; 2 mg/kg body weight): 4
Severe n (number of animal cases with severe lesions) ([3]; 2 mg/kg body weight): 0
Mild n (number of animal cases with mild lesions) ([3]; 5 mg/kg body weight): 3
Moderate n (number of animal cases with moderate lesions) ([3]; 5 mg/kg body weight): 2
No lesion n (number of animal cases) ([3]; 5 mg/kg body weight): 1
Severe n (number of animal cases with severe lesions) ([3]; 5 mg/kg body weight): 2
animals that had atherosclerosis (histological observation) ([3]; 1 mg/kg): 7 cases
animals that had atherosclerosis (histological observation) ([3]; 2 mg/kg): 4 cases
animals that had atherosclerosis (histological observation) ([3]; 5 mg/kg): 7 cases
effect on atherosclerotic lesions compared with the statin group ([3]; overall, aortic pathology Example 1): equivalent to or better than that of the statin group
Scores (atherosclerotic lesion score, average of the group) ([3]; score 0-3 per Table 8, 1 mg/kg body weight): 1.88 ± 1.13
Scores (atherosclerotic lesion score, average of the group) ([3]; score 0-3 per Table 8, 2 mg/kg body weight): 0.62 ± 0.74
Scores (atherosclerotic lesion score, average of the group) ([3]; score 0-3 per Table 8, 2 mg/kg body weight, listed as sample B): lower than the model control group
Scores (atherosclerotic lesion score, average of the group) ([3]; score 0-3 per Table 8, 5 mg/kg body weight): 1.62 ± 1.06
